The text below walks through data of ChEMBL document CHEMBL1133065, “Lipopolyamines incorporating the tetraamine spermine, bound to an alkyl chain, sequester bacterial lipopolysaccharide” (Bioorg Med Chem Lett, 2000).

The subject of one experiment is Nucleic Acid. Nature of the experiment: The compound was evaluated for binding affinity towards calf thymus DNA. The class given is nucleic-acid assay. As to conditions: Bos taurus.
Experiment [1] has as its system J774.A1. The experiment is described as follows: Inhibition of NO production by J774.A1 cells stimulated for 18 hr with Escherichia coli at 0.5 uM, measured as nitrite using the Griess assay; effectively inhibited. Format: functional, cell-based. To be noted: Mus musculus. A general note: Nitrite, measured by Griess reagent, commonly stands in for NO production.
Experiment [2] has as its system J774.A1. Nature of the experiment: Inhibition of TNF-alpha production by J774.A1 cells stimulated for 18 hr with Escherichia coli at 0.9 uM, by ELISA assay; effectively inhibited. Format: functional, cell-based. As to conditions: Mus musculus. A general note: An ELISA detects its analyte on a solid surface through an enzyme-linked reagent.

In the case of `CCCCCCCCCCCCCCCC(=O)NCCCNCCCCNCCCN`, the C50 in the experiment with Nucleic Acid was 1.35 µM. As for `CCCCCCCCCCCCCCCCCC(=O)NCCCNCCCCNCCCN`, the C50 in the experiment with Nucleic Acid was 1.27 µM. Same read-out and setting: the result for `CCCCCCCC/C=C/CCCCCCCC(=O)NCCCNCCCCNCCCN` reads 1.29 µM. With `CCCCCCCCCCCCCCCC(=O)NCCCNCCCNCCCCNCCCN`, the inhibition result in the experiment on J774.A1 [1] and in the experiment on J774.A1 [2] was “effectively inhibited” each time. In the experiment on Nucleic Acid, this molecule returned a C50 of 0.9 µM.
